Measured values: patent US12653802B2, “Method for treating lung cancer” (priority 2020, dated 2026)

Experiments:
H1975 cells = test: Cell survival assay in EGFR-TKIs resistant NSCLC cells, IC50 (FIG. 1B); type: cell-based; settings: treated for 3 days, versus curcumin
Method: (§1) Experimentally, another 7 EGFR-TKIs resistant NSCLC cells were treated with Compound 21a, Compound 35a, Compound 35d, Compound 36 or Compound 37, and then the cell survival assay was performed to measure the IC50 values of the diarylheptanoid compounds of the present disclosure in the EGFR-TKIs resistant NSCLC cells, so as to determine the growth inhibitory effect of the diarylheptanoid compounds of the present disclosure on the EGFR-TKIs resistant NSCLC cells.
(§2) Please refer to FIG. 1B, FIG. 1C and FIG. 1D.

GR9 cells = test: Cell survival assay in gefitinib-resistant NSCLC cells, IC50 (FIG. 1C); type: cell-based; settings: treated for 3 days, versus curcumin
Method: as §1, §2

GR6 cells = test: as above; type: cell-based; settings: treated for 3 days, versus curcumin
Method: as §1, §2

GR2 cells = test: as above; type: cell-based; settings: treated for 3 days, versus curcumin
Method: as §1, §2

GR10 cells = test: as above; type: cell-based; settings: treated for 3 days, versus curcumin
Method: as §1, §2

GR5 cells = test: as above; type: cell-based; settings: treated for 3 days, versus curcumin
Method: as §1, §2

GR8 cells = test: as above; type: cell-based; settings: treated for 3 days, versus curcumin
Method: as §1, §2

H1650 cells = test: Growth inhibition of EGFR gene mutant NSCLC cells, cell survival stained with crystal violet, IC50 (FIG. 1A); type: cell-based; settings: treated for 3 days, versus parent compound curcumin
Method: The EGFR gene mutant NSCLC cells were treated with the diarylheptanoid compounds of the present disclosure, and then the cell survival was stained with crystal violet to measure the IC50 values of the diarylheptanoid compounds of the present disclosure in the EGFR gene mutant NSCLC cells, so as to determine the growth inhibitory effect of the diarylheptanoid compounds of the present disclosure on the EGFR gene mutant NSCLC cells.
EGFR gene mutations in lung cancer are mostly found in exons 18-21, which are the intracellular tyrosine kinase coding region. The most common mutations include E746-A750del in exon 19 and L858R point mutation in exon 21, which account for about 85%-90% of EGFR gene mutations. Tumor cells with these two mutations are sensitive to the EGFR-TKIs, known as activating mutations. Secondary mutations may occur in some tumor cells, and the most common secondary mutation is the T790M mutation in exon 20, which is a drug resistance mutation. […] The H1650 cells have the E746-A750del mutation in exon 19 of the EGFR gene, wherein the CCM represents curcumin and the BDMC represents bisdemethoxycurcumin.

GR6 tumor = test: Tumor re-progression in GR6 tumor mice, single and combined treatment with osimertinib (FIG. 3A); type: in vivo; settings: Compound 35d 100 mg/kg per day, osimertinib 1 mg/kg per day, alone or combined
Method: (§3) EGFR-TKIs are currently the standard treatment for NSCLC patients with the EGFR gene mutation. To further test whether the combined use of the diarylheptanoid compound of the present disclosure and known drug can enhance the therapeutic effect of NSCLC, the GR6 tumor mice were divided into 4 groups. One group received 100 mg/kg Compound 35d treatment per day (represented as 35d), another group received 1 mg/kg osimertinib treatment per day (represented as Osi), still another group received the combined treatment of 100 mg/kg Compound 35d and 1 mg/kg osimertinib per day (represented as 35d+Osi), and the other group was the control group without drug treatment.

[1] = Body weight changes in GR6 tumor mice, single and combined treatment (FIG. 3B); type: in vivo; settings: Compound 35d 100 mg/kg per day alone or with osimertinib 1 mg/kg per day
Method: as §3

[2] = Body weight changes in the tumor mice treated with Compound 35d alone (FIG. 2D); type: in vivo; settings: 100 mg/kg daily, treated for more than 1 month
Method: In order to verify the anticancer effect of the diarylheptanoid compound of the present disclosure in vivo, the GR6 tumor mouse model, the GR8 tumor mouse model and the HCC827 tumor mouse model of xenotransplantation were first established, and the GR6 tumor mice, the GR8 tumor mice, and the HCC827 tumor mice were treated with 100 mg/kg of Compound 35d daily for 35 days, and the tumor size and body weight of the GR6 tumor mice, the GR8 tumor mice, and the HCC827 tumor mice were recorded.

In the case of COc1cc(/C=C/C(=O)C(C)(C)C(=O)/C=C/c2ccc(OC(=O)C(C)(CO)CO)c(OC)c2)ccc1OC(=O)C(C)(CO)CO [Compound 35a, ((1E,6E)-4,4-dimethyl-3,5-dioxohepta-1,6-diene-1,7-diyl)bis(2-methoxy-4,1-phenylene)bis(3-hydroxy-2-hydroxymethyl)-2-methylpropanoate], the “inhibitory activity on the growth of the H1975 cells (IC50) compared with curcumin” value (H1975 cells) is reported as “significantly better inhibitory activity than curcumin”, the “inhibitory activity on the growth of the GR9 cells (IC50) compared with curcumin” value (GR9 cells) is reported as “significantly better inhibitory activity than curcumin” and the “inhibitory activity on the growth of the GR6 cells (IC50) compared with curcumin” value (GR6 cells) is reported as “significantly better inhibitory activity than curcumin”. The “inhibitory activity on the growth of the GR2 cells (IC50) compared with curcumin” value (GR2 cells) was “significantly better inhibitory activity than curcumin”, the “inhibitory activity on the growth of the GR10 cells (IC50) compared with curcumin” value (GR10 cells) was “significantly better inhibitory activity than curcumin” and the “inhibitory activity on the growth of the GR5 cells (IC50) compared with curcumin” value (GR5 cells) was “significantly better inhibitory activity than curcumin”. The “inhibitory activity on the growth of the GR8 cells (IC50) compared with curcumin” value (GR8 cells) was “significantly better inhibitory activity than curcumin” and the “inhibitory activity on the growth of the H1650 cells (IC50) compared with curcumin” value (H1650 cells) was “significantly better inhibitory activity than the parent compound—curcumin”.

In the case of C=CC(=O)Nc1cc(Nc2nccc(-c3cn(C)c4ccccc34)n2)c(OC)cc1N(C)CCN(C)C [osimertinib], the “tumor size / tumor re-progression in the GR6 tumor mice” value (GR6 tumor) is reported as “initially reduced by osimertinib treatment, the treated tumors subsequently re-growth”.

With COc1cc(/C=C/C(=O)/C=C(O)/C=C/c2ccc(OC(=O)C(C)(CO)CO)c(OC)c2)ccc1OC(=O)C(C)(CO)CO [Compound 21a, ((1E,3Z,6E)-3-hydroxy-5-oxohepta-1,3,6-triene-1,7-diyl)bis(2-methoxy-4,1-phenylene)bis(3-hydroxy-2-hydroxymethyl)-2-methylpropanoate] the “inhibitory activity on the growth of the H1975 cells (IC50) compared with curcumin” value (H1975 cells) was “significantly better inhibitory activity than curcumin”, the “inhibitory activity on the growth of the GR9 cells (IC50) compared with curcumin” value (GR9 cells) was “significantly better inhibitory activity than curcumin” and the “inhibitory activity on the growth of the GR6 cells (IC50) compared with curcumin” value (GR6 cells) was “significantly better inhibitory activity than curcumin”. The “inhibitory activity on the growth of the GR2 cells (IC50) compared with curcumin” value (GR2 cells) was “significantly better inhibitory activity than curcumin”, the “inhibitory activity on the growth of the GR10 cells (IC50) compared with curcumin” value (GR10 cells) was “significantly better inhibitory activity than curcumin” and the “inhibitory activity on the growth of the GR5 cells (IC50) compared with curcumin” value (GR5 cells) was “significantly better inhibitory activity than curcumin”. The “inhibitory activity on the growth of the GR8 cells (IC50) compared with curcumin” value (GR8 cells) was “significantly better inhibitory activity than curcumin” and the “inhibitory activity on the growth of the H1650 cells (IC50) compared with curcumin” value (H1650 cells) was “significantly better inhibitory activity than the parent compound—curcumin”.

With C#CCC(CC#C)(C(=O)/C=C/c1ccc(OC(=O)C(C)(CO)CO)c(OC)c1)C(=O)/C=C/c1ccc(OC(=O)C(C)(CO)CO)c(OC)c1 [Compound 35d, ((1E,6E)-3,5-dioxo-4,4-di(prop-2-yn-1-yl)hepta-1,6-diene-1,7-diyl)bis(2-methoxy-4,1-phenylene)bis(3-hydroxy-2-(hydroxymethyl)-2-methylpropanoate)] the “body weight of the GR6 tumor mice” value [1] was “neither the single treatment of Compound 35d nor the combined treatment of Compound 35d and osimertinib can significantly reduce the body weight” and the “body weight of the tumor mice” value [2] was “did not decrease significantly”.
